From US6277854A, “Tricyclic antitumor farnesyl protein transferase inhibitors” (Schering Corporation, priority 1999, dated 2001)

Columns and labels:
[1] = biological target: farnesyl protein transferase; test: In vitro enzyme assay: inhibition of farnesyl protein transferase (FPT), [3H]farnesyl transfer to Ras-CVLS; assay type: biochemical, rat (brain); human (expressed in E. coli)
From the text: 1. In vitro enzyme assays: Inhibition of famesyl protein transferase and geranylgeranyl protein transferase.
Farnesyl protein transferase (FPT) was partially purified from rat brain by ammonium sulfate fractionation followed by Q-Sepharose (Pharmacia, Inc.) anion exchange chromatography essentially as described by Yokoyama et al (Yokoyama, K., et al., (1991), A protein geranylgeranyltransferase from bovine brain: Implications for protein prenylation specificity, Proc. Natl. Acad. Sci USA 88: 5302-5306, the disclosure of which is incorporated herein by reference thereto). Human famesyl protein transferase was also expressed in E. coli, using cDNA clones encoding both the a and b subunits. The methods used were similar to those published (Omer, C. et al., (1993), Characterization of recombinant human famesyl protein transferase: Cloning, expression, farnesyl diphosphate binding, and functional homology with yeast prenyl-protein transferases, Biochemistry 32:5167-5176). Human famesyl protein transferase was partially-purified from the soluble protein fraction of E. coli as described above. […] Two forms of val^12 -Ha-Ras protein were prepared as substrates for these enzymes, differing in their carboxy terminal sequence. One form terminated in cysteine-valine-leucine-serine (Ras-CVLS) the other in cystein-valine-leucine-leucine (Ras-CVLL). Ras-CVLS is a substrate for the famesyl protein transferase while Ras-CVLL is a substrate for geranylgeranyl protein transferase I. The cDNAs encoding these proteins were constructed so that the proteins contain an amino-terminal extension of 6 histidine residues. Both proteins were expressed in Escherichia coli and purified using metal chelate affinity chromatography. The radiolabelled isoprenyl pyrophosphate substrates, [^3 H]farnesyl pyrophosphate and [^3 H]geranylgeranyl pyrophosphate, were purchased from DuPon/New England Nuclear.
Several methods for measuring farnesyl protein transferase activity have been described (Reiss et al 1990, Cell 62: 81; Schaber et al 1990, J. Biol. Chem. 265: 14701; Manne et al 1990, PNAS 87: 7541; and Barbacid & Manne 1993, U.S. Pat. No. 5,185,248). […] The reaction was allowed to proceed for 30 minutes at room temperature and then stopped with 0.5 ml of 4% sodium dodecyl sulfate (SDS) followed by 0.5 ml of cold 30% TCA. Samples were allowed to sit on ice for 45 minutes and precipitated Ras protein was then collected on GF/C filter paper mats using a Brandel cell harvester. Filter mats were washed once with 6% TCA, 2% SDS and radioactivity was measured in a Wallac 1204 Betaplate BS liquid scintillation counter. Percent inhibition was calculated relative to the DMSO vehicle control.

[2] = test system: Ras processing (val12-Ha-Ras-CVLS) in COS monkey kidney cells; test: Cell-based assay: inhibition of Ras processing in COS cells (transient expression of val12-Ha-Ras-CVLS); conditions: Primates
Experimental: Following electroporation, cells were plated into 6-well tissue culture dishes containing 1.5 ml of Dulbecco's-modified Eagle's media (GIBCO, Inc.) supplemented with 10% fetal calf serum and the appropriate farnesyl protein transferase inhibitors. After 24 hours, media was removed and fresh media containing the appropriate drugs was re-added.
48 hours after electroporation cells were examined under the microscope to monitor disordered cell growth induced by transforming Ras. Cells expressing transforming Ras become more rounded and refractile and overgrow the monolayer, reminiscent of the transformed phenotype. Cells were then photographed, washed twice with 1 ml of cold phosphate-buffered saline (PBS) and removed from the dish by scraping with a rubber policeman into 1 ml of a buffer containing 25 mM Tris, pH 8.0; 1 mM ethylenediamine tetraacetic acid; 1 mM phenylmethylsulfonyl fluoride; […]; and 0.1 mM pepstatin. Cells were lysed by homogenization and cell debris was removed by centrifugation at 2000×g for 10 min.
Cellular protein was precipitated by addition of ice-cold trichloroacetic acid and redissolved in […] of SDS-electrophoresis sample buffer. […] Proteins resolved on the gels were electroblotted onto nitrocellulose membranes for immunodetection.
After washing, membranes were incubated for one hour at room temperature with a 1:5000 dilution of secondary antibody, rabbit anti-rat IgG conjugated to horseradish peroxidase, in PBS containing 1% fetal calf serum. The presence of processed and unprocessed Ras-CVLS or Ras-CVLL was detected using a colorimetric peroxidase reagent (4-chloro-1-naphthol) as described by the manufacturer (Bio-Rad).

Row | SMILES | IC50 [1] [nM] | IC50 [2] [nM]
1 | CN(C)CCCC(=O)N1CCC(C2c3ncc(Br)cc3CCc3cc(Cl)cc(Cl)c32)CC1 (single isomer, unassigned) [Example 6] | 6.5 | 35
2 | COC(=O)CCCC(=O)N1CCC([C@H]2c3ncc(Br)cc3CCc3cc(Cl)cc(Br)c32)CC1 [Example 51, (+)-METHYL 4-(3,10-DIBROMO-8-CHLORO-6,11-DIHYDRO-5H-BENZO[5,6]CYCLO-HEPTA[1,2-b]PYRIDIN-11 (R)-YL)-DELTA-OXO-1-PIPERIDININE PENTANOATE] | 19 | 
3 | O=C(O)CCCC(=O)N1CCC([C@H]2c3ncc(Br)cc3CCc3cc(Cl)cc(Br)c32)CC1 [Example 52, (+)-SODIUM 4-(3,10-DIBROMO-8-CHLORO-6,11-DIHYDRO-5H-BENZO[5,6]CYCLO-HEPTA[1,2-b]PYRIDIN-11(R)-YL)-DELTA-OXO-1-PIPERIDININE PENTANOATE] | 44 | 
4 | O=C(O)CCCCC(=O)N1CCC([C@H]2c3ncc(Br)cc3CCc3cc(Cl)cc(Br)c32)CC1 [Example 55, (+)-SODIUM 4-(3,10-DIBROMO-8-CHLORO-6,11-DIHYDRO-5H-BENZO[5,6]CYCLO-HEPTA[1,2-b]PYRIDIN-11(R)-YL)-EPSILON-OXO-1-PIPERIDININE HEXANOATE] | 17 | 
5 | NC(=O)CCCCCC(=O)N1CCC([C@H]2c3ncc(Br)cc3CCc3cc(Cl)cc(Br)c32)CC1 [Example 59, (+)-4-(3,10-DIBROMO-8-CHLORO-6,11-DIHYDRO-5H-BENZO[5,6]CYCLO-HEPTA[1,2-b]PYRIDIN-11(R)-YL)-OMEGA-OXO-1-PIPERIDININE HEPTANAMIDE] | 3.3 | 15

More lines, main results first:

Row | IC50 [1] [nM] | SMILES | IC50 [2] [nM]
6 | 10 | NC(=O)CCCC(=O)N1CCC([C@H]2c3ncc(Br)cc3CCc3cc(Cl)cc(Br)c32)CC1 [Example 53, (+)-4-(3,10-DIBROMO-8-CHLORO-6,11-DIHYDRO-5H-BENZO[5,6]CYCLO-HEPTA[1,2-b]PYRIDIN-11(R)-YL)-DELTA-OXO-1-PIPERIDININE PENTANAMIDE] | 
7 | 15 | COC(=O)CCCCC(=O)N1CCC([C@H]2c3ncc(Br)cc3CCc3cc(Cl)cc(Br)c32)CC1 [Example 54, (+)-METHYL 4-(3,10-DIBROMO-8-CHLORO-6,11-DIHYDRO-5H-BENZO[5,6]CYCLO-HEPTA[1,2-b]PYRIDIN-11(R)-YL)-EPSILON-OXO-1-PIPERIDININE HEXANOATE] | 
8 | 7 | NC(=O)CCCCC(=O)N1CCC([C@H]2c3ncc(Br)cc3CCc3cc(Cl)cc(Br)c32)CC1 [Example 56, (+)-4-(3,10-DIBROMO-8-CHLORO-6,11-DIHYDRO-5H-BENZO[5,6]CYCLO-HEPTA[1,2-b]PYRIDIN-11(R)-YL)-EPSILON-OXO-1-PIPERIDININE HEXANAMIDE] | 
9 | 11 | COC(=O)CCCCCC(=O)N1CCC([C@H]2c3ncc(Br)cc3CCc3cc(Cl)cc(Br)c32)CC1 [Example 57, (+)-METHYL 4-(3,10-DIBROMO-8-CHLORO-6,11-DIHYDRO-5H-BENZO[5,6]CYCLO-HEPTA[1,2-b]PYRIDIN-11(R)-YL)-OMEGA-OXO-1-PIPERIDININE HEPTANOATE] | 
10 | 9.1 | O=C(O)CCCCCC(=O)N1CCC([C@H]2c3ncc(Br)cc3CCc3cc(Cl)cc(Br)c32)CC1 [Example 58, (+)-SODIUM 4-(3,10-DIBROMO-8-CHLORO-6,11-DIHYDRO-5H-BENZO[5,6]CYCLO-HEPTA[1,2-b]PYRIDIN-11 (R)-YL)-OMEGA-OXO-1-PIPERIDININE HEPTANOATE] | 300
